Test [1] concerns tracheal phenol red excretion amount in mice. As to the kind of experiment: Phlegm-reducing effect (tracheal phenol red excretion). It is filed as in vivo, Kunming mice. The settings on record: x ± s, n=16. The text has this: Test animals: Kunming mice (body weight 18-22 g, half male and half female), purchased from Beijing Vital River Laboratory Animal Technology Co., Ltd. Test reagent: Ammonium chloride (Guangzhou Chemical Reagent Factory). The devices were the same as in Test Example 1. According to the method of LI Yikui's phlegm-reducing test, the mice were fed normally for 3 days, and then randomly grouped into blank control group, compound of the present invention group, and ammonium chloride-positive control group. […] The phenol red excretion amount was calculated from the phenol red standard curve, and the significance of the difference between the groups was compared. Statistical method: data analysis of the experimental data was carried out with SPSS 10.0 statistical software, and t-test was used for comparison between groups.

The subject of test [2] is aqueous ammonia-induced cough in mice. The test can be described thus: Aqueous ammonia-induced cough test. Conditions: x ± s, n=16. It is filed as in vivo, Kunming mice. From the text:
Test animals: Kunming mice (body weight 18-22 g, half male and half female), purchased from Beijing Vital River Laboratory Animal Technology Co., Ltd., with Certificate No.: SCXK-(Beijing)2012-001.
(§1) Test reagent: Codeine phosphate (Europharm Laboratoires Co., Ltd.).
Device: YC-Y800 Medical ultrasonic nebulizer (Beijing Yadu Technology Co., Ltd., with Beijing Pharmaceutical Supervision Certificate No.: Beijing 99 No. 223145); UV-2450 UV-visible spectrophotometer (Shimadzu Co., Japan); UX420S Animal balance (Shimadzu Co., Japan); and milli electronic balance (Sartorius Co., Germany).
The mice were adaptively fed for 3 days followed by screening. The ultrasonic nebulizer was preheated, and added with 40 ml of fresh aqueous ammonia solution (12.5%). The mice were placed in 1000 ml beaker. The beaker's mouth was sealed with a plastic wrap with two holes opened (one for inserting the ultrasonic atomizer outlet tube, and the other for ventilation). Ammonia was continuously introduced by the ultrasonic atomizer at its minimal power for 60 seconds, followed by stopping the ultrasonic atomizer immediately. The plastic wrap was quickly opened to allow the ammonia to diffuse naturally. Mice which coughed for less than 10 times or more than 80 times within three minutes were excluded. The qualified mice were randomly grouped into blank control group, compound of the present invention group, and codeine phosphate-positive control group. The above groups were intragastrically administrated with the drugs according to body weight, and the blank control group was administrated with equal volume of distilled water. The administration was carried out once a day for five consecutive days. The mice were placed one by one in an inverted 5 L sealed glass bell jar for one hour after the last administration, and treated by a constant pressure ammonia spray stimulation for 15 seconds (10 mL of ammonia spray/time for one mouse, and changed each time). After the stimulation stopped, the mice were taken out to observe the latentperiod of the cough of the mice (the time from spraying starting to coughing starting) and the number of coughs within 2 minutes (cough was identified by severely contracting the abdominal muscles and opening the mouth, with a slight cough sound sometimes).
(§2) Statistical method: data analysis of the experimental data was carried out with SPSS 10.0 statistical software, and t-test was used for comparison between groups.

Test [3] deals with citric acid-induced cough in guinea pigs. The test can be described thus: Citric acid-induced cough test. The format is in vivo. Conditions: x ± s.
Excerpt: Test animals: Guinea pigs (body weight 180-220 g, half male and half female), purchased from Beijing Vital River Laboratory Animal Technology Co., Ltd.
as §1
The devices are the same as in Test Example 1.
The guinea pigs were adaptively fed for 1 day followed by preliminary screening.
The guinea pigs were placed one by one in an inverted 5 L sealed glass bell jar, and treated by a constant pressure spray stimulation (17.5% citric acid solution) for one minute. The number of coughs within 5 minutes from the spray was recorded, and the guinea pigs which coughed more than 10 times were chosen as qualified test animals. The qualified guinea pigs were randomly grouped into blank control group, compound of the present invention group, and codeine phosphate-positive control group. The above groups were intragastrically administrated with the drugs according to body weight, and the blank control group was administrated with equal volume of distilled water. The intragastrical administration was carried out for five consecutive days. The guinea pigs were placed in an inverted 5 L sealed glass bell jar for one hour after the last administration, and treated by the nebulizer for 30 seconds. The latentperiod of the cough of the guinea pigs (the time from starting spraying of 17.5% citric acid to coughing starting) and the number of coughs within 5 minutes were observed.
as §2

The mark [4] stands for this setting: positive control dose 15 mL·kg^-1 intragastric once a day for five days.
Setting [5] is: 20 mg·kg^-1 intragastric once a day for five days, ammonia spray 1 h after last administration.
[6] abbreviates: 20 mg·kg^-1 intragastric for five days, 17.5% citric acid spray 1 h after last administration.
Setting [7] is: 20 mg·kg^-1 intragastric for five days, phenol red i.p. 30 min after last administration.

Marks after values point to notes of the source that are not given here.

Regarding `Cl.N` [Ammonium chloride, reference compound], the “Tracheal phenol red excretion amount” value in test [1] (positive control dose 1000 mg·kg^-1 intragastric for five days) turned out to be 1.068 ± 0.224 mg/L.
On to `COc1ccc2c3c1O[C@H]1[C@@H](O)C=C[C@H]4[C@@H](C2)N(C)CC[C@@]341` [Codeine phosphate, reference compound], for which the Latentperiod in test [2] (setting [4]) is listed as 48.3 ± 5.9 s; in test [3] (positive control dose 15 mL·kg^-1 intragastric for five days, n=18) it was 107 ± 41 s. Moreover, the Number of coughs in test [2] (setting [4]) is recorded as 14.2 ± 6.5 times/2 min.
As for `O=C(O)C[C@@H](NC(=O)Cc1cn([C@@H]2O[C@H](CO)[C@@H](O)[C@H](O)[C@H]2O)c2ccccc12)C(=O)O` [Compound 1, (2-(1-((2R,3R,4S,5S,6R)-3,4,5-trihydroxy-6-(hydroxymethyl)tetrahydro-2H-pyran-2-yl)-1H-indol-3-yl)acetyl)-D-aspartic acid], in test [2] (setting [5]), the Latentperiod worked out at 45.8 ± 8.2 s and the Number of coughs was 19.1 ± 10.7 times/2 min. Moreover, in test [3] (setting [6]), the Latentperiod is on record as 147 ± 89 s. Besides, the “Tracheal phenol red excretion amount” value in test [1] (setting [7]) was 1.125 ± 0.129 mg/L.
As to `O=C(O)CC[C@@H](NC(=O)Cc1cn([C@@H]2O[C@H](CO)[C@@H](O)[C@H](O)[C@H]2O)c2ccccc12)C(=O)O` [Compound 2, (2-(1-((2R,3R,4S,5S,6R)-3,4,5-trihydroxy-6-(hydroxymethyl)tetrahydro-2H-pyran-2-yl)-1H-indol-3-yl)acetyl)-D-glutamic acid], in test [2] (setting [5]), the Latentperiod is 48.5 ± 9.4 s and the Number of coughs came to 17.3 ± 4.6 times/2 min. In addition, the Latentperiod in test [3] (setting [6]) worked out at 98 ± 59 s. Also, the “Tracheal phenol red excretion amount” value in test [1] (setting [7]) amounted to 0.988 ± 0.211 mg/L.
The corresponding values for `Cc1ccc2c(c1)c(CC(=O)N[C@H](CC(=O)O)C(=O)O)cn2[C@@H]1O[C@H](CO)[C@@H](O)[C@H](O)[C@H]1O` [Compound 3, (2-(5-methyl-1-((2R,3R,4S,5S,6R)-3,4,5-trihydroxy-6-(hydroxymethyl)tetrahydro-2H-pyran-2-yl)-1H-indol-3-yl)acetyl)-D-aspartic acid] are 38.1 ± 5.3 s, 20.7 ± 5.2 times/2 min, 128 ± 65 s and 0.971 ± 0.114 mg/L.
The corresponding values for `COc1ccc2c(c1)c(CC(=O)N[C@H](CC(=O)O)C(=O)O)cn2[C@@H]1O[C@H](CO)[C@@H](O)[C@H](O)[C@H]1O` [Compound 4] are 40.3 ± 5.5 s, 18.5 ± 4.3 times/2 min, 120 ± 55 s and 1.072 ± 0.221 mg/L.
Take `O=C(O)C[C@@H](NC(=O)Cc1cn([C@@H]2O[C@H](CO)[C@@H](O)[C@H](O)[C@H]2O)c2ccc(Cl)cc12)C(=O)O` [Compound 5, (2-(5-chloro-1-((2R,3R,4S,5S,6R)-3,4,5-trihydroxy-6-(hydroxymethyl)tetrahydro-2H-pyran-2-yl)-1H-indol-3-yl)acetyl)-D-aspartic acid]: in test [2] (setting [5]), the Latentperiod is listed as 42.6 ± 11.2 s and the Number of coughs was determined as 19.6 ± 5.1 times/2 min. This compound also came in with a Latentperiod in test [3] (setting [6]) of 110 ± 32 s. In test [1] (setting [7]), the “Tracheal phenol red excretion amount” value worked out at 0.831 ± 0.107 mg/L.
For `O=C(O)C[C@@H](NC(=O)Cc1cn([C@@H]2O[C@H](CO)[C@@H](O)[C@H](O)[C@H]2O)c2ccc(Br)cc12)C(=O)O` [Compound 6, (2-(5-bromo-1-((2R,3R,4S,5S,6R)-3,4,5-trihydroxy-6-(hydroxymethyl)tetrahydro-2H-pyran-2-yl)-1H-indol-3-yl)acetyl)-D-aspartic acid] the same measures were 40.7 ± 5.2 s, 21.8 ± 7.3 times/2 min, 127 ± 52 s and 0.888 ± 0.145 mg/L.
As for `Cc1cccc2c(CC(=O)N[C@H](CC(=O)O)C(=O)O)cn([C@@H]3O[C@H](CO)[C@@H](O)[C@H](O)[C@H]3O)c12` [Compound 7], in test [2] (setting [5]), the Latentperiod turned out to be 42.1 ± 7.2 s and the Number of coughs came to 18.6 ± 8.5 times/2 min. The Latentperiod in test [3] (setting [6]) was 130 ± 22 s. Further, the “Tracheal phenol red excretion amount” value in test [1] (setting [7]) was found to be 0.956 ± 0.270 mg/L.
For `COc1cccc2c(CC(=O)N[C@H](CC(=O)O)C(=O)O)cn([C@@H]3O[C@H](CO)[C@@H](O)[C@H](O)[C@H]3O)c12` [Compound 8] the same measures were 39.6 ± 5.5 s, 19.2 ± 4.7 times/2 min, 110 ± 32 s and 1.142 ± 0.132 mg/L.
The corresponding values for `Cc1ccc2c(c1)c(CC(=O)N[C@H](CCC(=O)O)C(=O)O)cn2[C@@H]1O[C@H](CO)[C@@H](O)[C@H](O)[C@H]1O` [Compound 9] are 38.1 ± 4.7 s, 23.8 ± 5.1 times/2 min, 121 ± 47 s and 1.089 ± 0.139**^1 mg · L^−1.
Take `O=C(O)CC[C@@H](NC(=O)Cc1cn([C@@H]2O[C@H](CO)[C@@H](O)[C@H](O)[C@H]2O)c2ccc(Cl)cc12)C(=O)O` [Compound 10]: in test [2] (setting [5]), the Latentperiod stood at 39.4 ± 4.1 s and the Number of coughs is given as 19.4 ± 6.3 times/2 min. The same compound had a Latentperiod in test [3] (setting [6]) of 139 ± 41 s. The “Tracheal phenol red excretion amount” value in test [1] (setting [7]) came to 0.962 ± 0.101 mg/L.

The values are drawn from patent US11008360B2, “Indoleacetic acid derivative and preparation method and pharmaceutical use thereof” (Institute of Chinese Materia Medica, China Academy of …, priority 2017, dated 2021).
